Several values for one entry are separate records, joined by “and”; a condition that tells them apart may be missing. Identical values can stand only once. Inconclusive results and toxic doses are left out. Rule for the calls: active = survival T/C of 150% or more; inactive = T/C below 125% in these data. Residues, ends and D or L forms follow the SMILES beside them. *: point of attachment. Boc = CC(C)(C)OC(=O)*; NHNH2 = NN*
Test system: CD2F1 mice, L1210 leukemia ip, survival T/C
Assay: NCI In Vivo Anticancer Drug Screen. Data for tumor model L1210 Leukemia (intraperitoneal) in CD2F1 (CDF1) mice
Details: higher = longer survival
In short: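 Antitumor effect is scored in animals hosting a serially transplanted tumor. Values compare compound-dosed animals against vehicle-only controls as a simple quotient.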

[1] = endpoint: mean survival time, dose: 25.0 mg/kg/injection, schedule: Q01DX009 (ip), vehicle: Klucel (hydroxypropylcellulose) (HPC)
[2] = endpoint: mean survival time, dose: 50.0 mg/kg/injection, schedule: Q01DX009 (ip), vehicle: Klucel (hydroxypropylcellulose) (HPC)
[3] = endpoint: mean survival time, dose: 100.0 mg/kg/injection, schedule: Q01DX009 (ip), vehicle: Klucel (hydroxypropylcellulose) (HPC)
[4] = endpoint: mean survival time, dose: 100.0 mg/kg/injection, schedule: Q01DX009 (ip), vehicle: saline with Tween-80
[5] = endpoint: mean survival time, dose: 100.0 mg/kg/injection, schedule: Q04DX003 (ip), vehicle: saline with Tween-80
[6] = endpoint: mean survival time, dose: 200.0 mg/kg/injection, schedule: Q01DX009 (ip), vehicle: saline with Tween-80
[7] = endpoint: mean survival time, dose: 200.0 mg/kg/injection, schedule: Q04DX003 (ip), vehicle: saline with Tween-80
[8] = endpoint: mean survival time, dose: 400.0 mg/kg/injection, schedule: Q01DX009 (ip), vehicle: saline with Tween-80
[9] = endpoint: mean survival time, dose: 400.0 mg/kg/injection, schedule: Q04DX003 (ip), vehicle: saline with Tween-80
[10] = endpoint: mean survival time, dose: 100.0 mg/kg/injection, schedule: Q01DX001 (ip), vehicle: saline
[11] = endpoint: mean survival time, dose: 25.0 mg/kg/injection, schedule: Q01DX009 (ip), vehicle: saline with Tween-80
[12] = endpoint: mean survival time, dose: 50.0 mg/kg/injection, schedule: Q01DX009 (ip), vehicle: saline with Tween-80
[13] = endpoint: mean survival time, dose: 100.0 mg/kg/injection, schedule: Q04DX002 (ip), vehicle: saline with Tween-80
[14] = endpoint: mean survival time, dose: 200.0 mg/kg/injection, schedule: Q04DX002 (ip), vehicle: saline with Tween-80
[15] = endpoint: mean survival time, dose: 400.0 mg/kg/injection, schedule: Q04DX002 (ip), vehicle: saline with Tween-80

Measured: T/C

CCCCCCCCCCCCCCCCCC[n+]1cccc(C(=O)N2CCOCC2)c1
inactive: [1] 90 % of control | [2] 95 % of control | [3] 92 % of control

N#CC1C(=N)Cc2ccccc2-c2ccccc21 (stereo unspecified)
inactive: [4] 96 % of control | [5] 108 % of control | [6] 93 % of control | [7] 101 % of control | [8] 106 % of control | [9] 101 % of control

Cc1ccc(NC(=O)Nc2ccccc2C(N)=O)c([N+](=O)[O-])c1
inactive: [3] 95 % of control | endpoint: mean survival time, dose: 200.0 mg/kg/injection, schedule: Q01DX009 (ip), vehicle: Klucel (hydroxypropylcellulose) (HPC) 89 % of control | endpoint: mean survival time, dose: 400.0 mg/kg/injection, schedule: Q01DX009 (ip), vehicle: Klucel (hydroxypropylcellulose) (HPC) 95 % of control

Nc1ccc(Nc2ccc([N+](=O)[O-])cc2[N+](=O)[O-])cc1
inactive: endpoint: mean survival time, dose: 100.0 mg/kg/injection, schedule: Q01DX001 (ip), vehicle: saline with Tween-80 89 % of control | endpoint: mean survival time, dose: 200.0 mg/kg/injection, schedule: Q01DX001 (ip), vehicle: saline with Tween-80 96 % of control | endpoint: mean survival time, dose: 400.0 mg/kg/injection, schedule: Q01DX001 (ip), vehicle: saline with Tween-80 96 % of control

C=CN(C)OC
inactive: [10] 100 % of control

CCOC(=O)C(=C=C(C(=O)OCC)C(=O)OCC)C(=O)OCC
inactive: endpoint: mean survival time, dose: 25.0 mg/kg/injection, schedule: Q01DX005 (ip), vehicle: saline with Tween-80 97 % of control | [11] 95 % of control | endpoint: mean survival time, dose: 25.0 mg/kg/injection, schedule: Q04DX002 (ip), vehicle: saline with Tween-80 103 % of control | endpoint: mean survival time, dose: 50.0 mg/kg/injection, schedule: Q01DX005 (ip), vehicle: saline with Tween-80 92 % of control and 97 % of control | [12] 98 % of control | endpoint: mean survival time, dose: 50.0 mg/kg/injection, schedule: Q04DX002 (ip), vehicle: saline with Tween-80 88 % of control and 106 % of control | endpoint: mean survival time, dose: 100.0 mg/kg/injection, schedule: Q01DX005 (ip), vehicle: saline with Tween-80 94 % of control | [4] 95 % of control | [13] 103 % of control and 106 % of control | endpoint: mean survival time, dose: 200.0 mg/kg/injection, schedule: Q01DX005 (ip), vehicle: saline with Tween-80 86 % of control and 94 % of control | [6] 91 % of control | [14] 95 % of control and 98 % of control | [15] 98 % of control

COc1cc(Cc2cnc(NC(C)=O)nc2NC(C)=O)cc(OC)c1OC
inactive: [9] 93 % of control

O/N=C/c1ccc(O)cc1O
inactive: [10] 100 % of control | endpoint: mean survival time, dose: 200.0 mg/kg/injection, schedule: Q01DX001 (ip), vehicle: saline 102 % of control

Cc1ccccc1OS(=O)(=O)c1cccc([N+](=O)[O-])c1
inactive: [5] 103 % of control | [7] 100 % of control | [9] 100 % of control

NC(Cc1cc(I)c(Oc2cc(I)c(O)c(I)c2)c(I)c1)C(=O)O (stereo unspecified)
inactive: endpoint: mean survival time, dose: 0.04 mg/kg/injection, schedule: Q01DX009 (ip), vehicle: saline + alcohol 96 % of control | endpoint: mean survival time, dose: 0.04 mg/kg/injection, schedule: Q01DX009 (ip), vehicle: saline 88 % of control and 96 % of control | endpoint: mean survival time, dose: 0.16 mg/kg/injection, schedule: Q01DX009 (ip), vehicle: saline + alcohol 102 % of control | endpoint: mean survival time, dose: 0.16 mg/kg/injection, schedule: Q01DX009 (ip), vehicle: saline 91 % of control and 98 % of control | endpoint: mean survival time, dose: 0.25 mg/kg/injection, schedule: Q01DX009 (ip), vehicle: saline 93 % of control | endpoint: mean survival time, dose: 0.63 mg/kg/injection, schedule: Q01DX009 (ip), vehicle: saline 94 % of control | endpoint: mean survival time, dose: 0.64 mg/kg/injection, schedule: Q01DX009 (ip), vehicle: saline + alcohol 94 % of control | endpoint: mean survival time, dose: 0.64 mg/kg/injection, schedule: Q01DX009 (ip), vehicle: saline 87 % of control and 94 % of control | endpoint: mean survival time, dose: 1.0 mg/kg/injection, schedule: Q01DX009 (ip), vehicle: saline 96 % of control | endpoint: mean survival time, dose: 2.0 mg/kg/injection, schedule: Q01DX009 (ip), vehicle: saline 88 % of control | endpoint: mean survival time, dose: 2.5 mg/kg/injection, schedule: Q01DX009 (ip), vehicle: saline + alcohol 93 % of control | endpoint: mean survival time, dose: 2.5 mg/kg/injection, schedule: Q01DX009 (ip), vehicle: saline 91 % of control and 92 % of control and 94 % of control | endpoint: mean survival time, dose: 8.0 mg/kg/injection, schedule: Q01DX009 (ip), vehicle: saline 86 % of control and 88 % of control and 90 % of control | endpoint: mean survival time, dose: 10.0 mg/kg/injection, schedule: Q01DX009 (ip), vehicle: saline + alcohol 94 % of control | endpoint: mean survival time, dose: 10.0 mg/kg/injection, schedule: Q01DX009 (ip), vehicle: saline 89 % of control and 90 % of control and 92 % of control | endpoint: mean survival time, dose: 16.0 mg/kg/injection, schedule: Q01DX009 (ip), vehicle: saline 86 % of control and 89 % of control | endpoint: mean survival time, dose: 32.0 mg/kg/injection, schedule: Q01DX009 (ip), vehicle: saline 83 % of control and 89 % of control | endpoint: mean survival time, dose: 40.0 mg/kg/injection, schedule: Q01DX009 (ip), vehicle: saline 88 % of control | endpoint: mean survival time, dose: 64.0 mg/kg/injection, schedule: Q01DX009 (ip), vehicle: saline 87 % of control and 89 % of control | endpoint: mean survival time, dose: 128.0 mg/kg/injection, schedule: Q01DX009 (ip), vehicle: saline 87 % of control and 90 % of control

O=C1OC(O)C(Cl)=C1Cl (stereo unspecified)
inactive: endpoint: mean survival time, dose: 100.0 mg/kg/injection, schedule: Q04DX002 (ip), vehicle: Klucel (hydroxypropylcellulose) (HPC) 103 % of control | endpoint: mean survival time, dose: 200.0 mg/kg/injection, schedule: Q04DX002 (ip), vehicle: Klucel (hydroxypropylcellulose) (HPC) 91 % of control | endpoint: mean survival time, dose: 400.0 mg/kg/injection, schedule: Q04DX002 (ip), vehicle: Klucel (hydroxypropylcellulose) (HPC) 97 % of control

CCC1CCC(NC(=O)NC)CC1 (stereo unspecified)
inactive: [5] 99 % of control | [7] 92 % of control

COc1nc(=O)n(C2C=CC(=O)O2)cc1F (stereo unspecified)
inactive: endpoint: median survival time, dose: 6.25 mg/kg/injection, schedule: Q01DX009 (ip), vehicle: saline 98 % of control | endpoint: median survival time, dose: 12.5 mg/kg/injection, schedule: Q01DX009 (ip), vehicle: saline 100 % of control | endpoint: median survival time, dose: 25.0 mg/kg/injection, schedule: Q01DX009 (ip), vehicle: saline 108 % of control | endpoint: median survival time, dose: 50.0 mg/kg/injection, schedule: Q01DX009 (ip), vehicle: saline 108 % of control | endpoint: median survival time, dose: 100.0 mg/kg/injection, schedule: Q01DX009 (ip), vehicle: saline 110 % of control

NNC(=O)CNc1cccc(Br)c1
inactive: endpoint: mean survival time, dose: 12.5 mg/kg/injection, schedule: Q01DX009 (ip), vehicle: Klucel (hydroxypropylcellulose) (HPC) 98 % of control | [1] 101 % of control | [2] 101 % of control | endpoint: mean survival time, dose: 50.0 mg/kg/injection, schedule: Q04DX003 (ip), vehicle: Klucel (hydroxypropylcellulose) (HPC) 101 % of control | endpoint: mean survival time, dose: 100.0 mg/kg/injection, schedule: Q01DX001 (ip), vehicle: Klucel (hydroxypropylcellulose) (HPC) 102 % of control | [3] 97 % of control | endpoint: mean survival time, dose: 100.0 mg/kg/injection, schedule: Q04DX003 (ip), vehicle: Klucel (hydroxypropylcellulose) (HPC) 98 % of control | endpoint: mean survival time, dose: 200.0 mg/kg/injection, schedule: Q01DX001 (ip), vehicle: Klucel (hydroxypropylcellulose) (HPC) 98 % of control | endpoint: mean survival time, dose: 200.0 mg/kg/injection, schedule: Q04DX003 (ip), vehicle: Klucel (hydroxypropylcellulose) (HPC) 111 % of control

COc1cccc(/C(C)=N\NC(=O)c2ccccc2)c1
inactive: [11] 98 % of control | [12] 95 % of control | [4] 88 % of control | [5] 96 % of control

CCN(CC)CCCOC(=O)c1ccc(N)cc1
inactive: endpoint: mean survival time, dose: 12.5 mg/kg/injection, schedule: Q04DX003 (ip), vehicle: saline 107 % of control | endpoint: mean survival time, dose: 25.0 mg/kg/injection, schedule: Q04DX003 (ip), vehicle: saline 105 % of control | endpoint: mean survival time, dose: 50.0 mg/kg/injection, schedule: Q04DX003 (ip), vehicle: saline 101 % of control

COc1ccc(OC)c(NC(=O)Oc2ccc(C(=O)OCc3ccccc3)cc2)c1
inactive: [4] 101 % of control | [6] 104 % of control | [8] 104 % of control

CC(C)CC(NC(=O)C(Cc1c[nH]c2ccccc12)NC(=O)OC(C)(C)C)C(=O)NN (stereo not drawn) (Boc-Trp-Leu-NHNH2; configuration not given here)
inactive: endpoint: mean survival time, dose: 25.0 mg/kg/injection, schedule: Q01DX009 (ip), vehicle: saline 105 % of control | endpoint: mean survival time, dose: 50.0 mg/kg/injection, schedule: Q01DX009 (ip), vehicle: saline 106 % of control and 109 % of control | endpoint: mean survival time, dose: 100.0 mg/kg/injection, schedule: Q01DX009 (ip), vehicle: saline 117 % of control and 124 % of control | endpoint: mean survival time, dose: 200.0 mg/kg/injection, schedule: Q01DX009 (ip), vehicle: saline 117 % of control

CCc1ccc(NC(=O)/C=C/c2ccccc2)cc1
inactive: [13] 93 % of control | [14] 89 % of control | [15] 104 % of control

— PubChem BioAssay AID256 (DTP/NCI, 2004)
